{
  "source": "patent US6887882B2",
  "about": "“Pharmaceutical compositions comprising chelidonine or derivatives thereof” (priority 2002, dated 2005)",
  "key": {"mouse": {"system": "mouse", "conditions": "intravenously; cited from earlier work"}, "hKv1.5 channel [1]": {"molecular_target": "T1, hKv1.5 channel (Homo sapiens, UniProt P22460)", "T1 construct": "expressed in transfected cells; host or cells: mouse Ltk- cells (pMSVneo vector, G418 selection)", "T1 sequence (P22460 whole entry)": "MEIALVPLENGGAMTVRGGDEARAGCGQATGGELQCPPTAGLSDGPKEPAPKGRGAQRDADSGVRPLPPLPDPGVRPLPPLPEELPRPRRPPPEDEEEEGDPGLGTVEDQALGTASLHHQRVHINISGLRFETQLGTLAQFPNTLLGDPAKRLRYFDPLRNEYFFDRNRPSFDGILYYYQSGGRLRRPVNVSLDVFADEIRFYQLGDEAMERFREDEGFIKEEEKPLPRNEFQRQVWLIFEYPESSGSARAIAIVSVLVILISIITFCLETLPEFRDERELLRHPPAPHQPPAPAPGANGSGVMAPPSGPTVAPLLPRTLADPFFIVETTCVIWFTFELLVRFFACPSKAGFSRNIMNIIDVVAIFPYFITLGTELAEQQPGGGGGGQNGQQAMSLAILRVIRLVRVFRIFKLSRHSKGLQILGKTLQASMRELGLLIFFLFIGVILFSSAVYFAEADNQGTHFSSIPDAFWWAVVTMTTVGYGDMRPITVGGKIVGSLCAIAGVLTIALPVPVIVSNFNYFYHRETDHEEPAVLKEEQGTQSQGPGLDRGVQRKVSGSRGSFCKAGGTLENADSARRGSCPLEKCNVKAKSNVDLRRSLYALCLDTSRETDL", "experiment": "Channel state-dependency of hKv1.5 block (tail currents)", "assay_type": "cell-based", "conditions": "10 μM; tail currents at -50 mV after +50 mV pulse", "text": "We tested the channel state-dependency of hKv1.5 block by chelidonine (FIG. 3).\nUnder control conditions, the tail currents were rapidly deactivated."}, "[2]": {"system": "K+ channel current in human atrial myocytes", "experiment": "Effect on the K+ current in human atrial myocytes (whole cell patch clamp)", "assay_type": "cell-based", "procedure": "Currents in human atrial myocytes and cell lines were recorded by using the whole cell configuration of the gigaohm-seal patch clamp techniques (Kwak, et al., Phosphorylation is required for alteration of Kv1.5 K^+ channel function by the Kvbeta 1.3 subunit. J Biol Chem 1999, 274: 25355-25361). First, electrical signals were amplified with a patch clamp amplifier (Axon Instruments, Axopatch-1D, Foster, USA). Currents were digitized by a signal converter (Digidata 1200, Axon Instruments) and stored on the hard disk of a computer. The micropipette with a resistance of 1˜2MΩ (Kimax-51, 1.5=14 1.8×10 mm) for current recording, was pulled out by a 2-stage pipette puller (Narishige, PP-83). The intracellular pipette-filling solution for whole cell mode contained 100 mM KCl, 10 mM HEPES, 5 mM K4BAPTA, 5 mM K2ATP and 1 mM MgCl2 (pH 7.2). The extracellular solution contained 130 mM NaCl, 4 mM KCl, 1.8 mM CaCl2, 1 mM MgCl2, 10 mM HEPES and 10 mM glucose (pH 7.35).\nIsolation of human atrial myocytes was carried out by the Wang, et al.'s method (Effects of flecainide, quinidine, and 4-aminopyridine on transient outward and ultrarapid delayed rectifier currents in human atrial myocytes. J Pharmacol Exp Ther 1995, 272: 184-196). Specimens of human right atrial appendage were obtained from the hearts of patients undergoing cardiopulmonary bypass surgery. […]"}, "hKv1.5 channel [3]": {"molecular_target": "T1, hKv1.5 channel", "experiment": "Voltage-dependent block of hKv1.5 channel currents expressed in Ltk-cells", "assay_type": "cell-based", "conditions": "10 μM", "text": "To quantify the voltage-dependent block of chelidonine (compound 1), the relative steady state current, Ichelidonine/Icontrol was plotted as a function of membrane potential (FIG. 2). The steady-state currents were obtained at the end stage of 250 ms depolarizing pulses, while increasing the membrane voltage by 10 mV from −80 to +60 mV. The dotted line denotes the activation curve of hKv1.5 channel current expressed in Ltk-cells."}, "rabbit atrial tissue": {"system": "rabbit atrial tissue", "experiment": "Frequency-dependent effects on action potentials of rabbit atrial tissue (APD90)", "assay_type": "cell-based", "conditions": "1 μM, of control APD90, n=5", "procedure": "Action potentials in rabbit atrial tissue were recorded according to the method described in thesis by Kwak, et al. (A newly synthesized benzopyran derivatives, activates the cardiac ATP-sensitive K^+ channel. J Pharmacol Exp Ther 1995, 275: 807-812).\nMale New Zealand white rabbits weighing about 2 kg were stunned with a blow on the head and hearts were rapidly excised and transferred to a dissection bath filled with Tyrode's solution saturated with 97% O2 and 3% CO2 gas mixture and each dissected tissue was mounted horizontally in a narrow channel of a tissue chamber and continuously superfused with the Tyrode's solution at 37° C. The action potentials were elicited by stimulating the cardiac cells with square pulses (1˜5 Hz, 1-ms duration, 20-30% above threshold voltage) by a stimulator. […] Tracings on the oscilloscope screen were photographed on a 35-mm film and also recorded on a physiograph (RS 3400, Gould, Cleveland, Ohio). APD90 was used for the comparison of action potential durations. APD90 represents the action potential duration at 90% repolarization, relative to the action potential duration at maximum 100% depolarization. Images on the oscilloscope screen were captured on Polaroid camera.\nWe tested whether the effect of chelidonine on action potentials of rabbit atrial myocytes are frequency-dependent or not.\nThe relative action potential durations were normalized to the APD90 value in the absence of chelidonine at each frequency. At the stimulus frequency of 1, 2, 3, 4 and 5 Hz, 1 μM chelidonine increased APD90 by 13.0±8.1% (n=5), 14.5±7.9% (n=5), 16.5±2.2% (n=5) 28.2±0.4% (n=5) or 33.0±0.3 1% (n=5) of the control APD90 in the absence of chelidonine at each frequency, respectively."}},
  "data": [
    {"smiles": "CN1Cc2c(ccc3c2OCO3)[C@@H]2[C@H]1c1cc3c(cc1C[C@@H]2O)OCO3", "note": "[Compound 1, [5bR-(5bα,6β,12bα)]-5b,6,7,12b,13, 14-hexahydro-13-methyl[1,3]benzodioxolo[5,6c]-1,3-dioxolo[4,5-i]phenanthridin-6-ol]", "values": [
      {"measurement": "toxicity", "setting": "mouse", "result": "34.6 ± 2.44", "unit": "mg/kg"},
      {"measurement": "channel state-dependency of hKv1.5 block", "setting": "hKv1.5 channel [1]", "result": "acts as an open channel blocker"},
      {"measurement": "effect on peak amplitude of outward K+ current", "setting": "[2]; 10 μM", "result": "decreased the peak amplitude"},
      {"measurement": "inhibition at 10 µM", "setting": "[2]; compared to control, n=7, read-out: inhibition of steady-state currents at the end of the depolarizing pulse of +50 mV", "result": "41 ± 5", "unit": "%"},
      {"measurement": "voltage-dependence of block", "setting": "hKv1.5 channel [3]; between 0 mV and +60 mV", "result": "weak voltage-dependence"},
      {"measurement": "δ value (Woodhull equation)", "setting": "hKv1.5 channel [3]; between 0 mV and +60 mV, n=7", "result": "0.16±0.01"},
      {"measurement": "voltage-dependence of block", "setting": "hKv1.5 channel [3]; between -30 mV and 0 mV", "result": "strong voltage-dependence"},
      {"measurement": "increase of APD90", "setting": "rabbit atrial tissue; stimulus frequency 1 Hz", "result": "13.0±8.1", "unit": "%"},
      {"measurement": "increase of APD90", "setting": "rabbit atrial tissue; stimulus frequency 2 Hz", "result": "14.5±7.9", "unit": "%"},
      {"measurement": "increase of APD90", "setting": "rabbit atrial tissue; stimulus frequency 3 Hz", "result": "16.5±2.2", "unit": "%"},
      {"measurement": "increase of APD90", "setting": "rabbit atrial tissue; stimulus frequency 4 Hz", "result": "28.2±0.4", "unit": "%"}
    ]}
  ]
}
